Values joined by “and” are separate entries in the source; they are usually repeats but may differ in a detail not shown here. Equal entries are not always repeated. Inconclusive results and toxic doses are left out. Rule as the data show it: active = T/C of 150% or more; inactive = T/C below 125%. Peptide text beside a SMILES is read from it. * marks the point of attachment. Cbz = O=C(OCc1ccccc1)*; NHNH2 = NN*
Tested on: L1210 leukemia ip in BDF1 mice, survival T/C
Experiment: NCI In Vivo Anticancer Drug Screen. Data for tumor model L1210 Leukemia (intraperitoneal) in B6D2F1 (BDF1) mice
Details: endpoint: mean survival time, higher = longer survival
Procedure, shortened: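 Ratio derived from survival: compound-dosed mice over vehicle-dosed mice, all bearing a transplantable tumor.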

[1] = dose: 100.0 mg/kg/injection, schedule: Q04DX003 (ip), vehicle: saline
[2] = dose: 200.0 mg/kg/injection, schedule: Q04DX003 (ip), vehicle: saline
[3] = dose: 400.0 mg/kg/injection, schedule: Q04DX003 (ip), vehicle: saline
[4] = dose: 100.0 mg/kg/injection, schedule: Q01DX001 (ip), vehicle: Klucel (hydroxypropylcellulose) (HPC)
[5] = dose: 200.0 mg/kg/injection, schedule: Q01DX001 (ip), vehicle: Klucel (hydroxypropylcellulose) (HPC)
[6] = dose: 400.0 mg/kg/injection, schedule: Q01DX001 (ip), vehicle: Klucel (hydroxypropylcellulose) (HPC)
[7] = dose: 100.0 mg/kg/injection, schedule: Q04DX002 (ip), vehicle: saline with Tween-80
[8] = dose: 200.0 mg/kg/injection, schedule: Q04DX002 (ip), vehicle: saline with Tween-80
[9] = dose: 100.0 mg/kg/injection, schedule: Q01DX001 (ip), vehicle: carboxymethylcellulose (CMC)
[10] = dose: 200.0 mg/kg/injection, schedule: Q01DX001 (ip), vehicle: carboxymethylcellulose (CMC)
[11] = dose: 400.0 mg/kg/injection, schedule: Q01DX001 (ip), vehicle: carboxymethylcellulose (CMC)
[12] = dose: 100.0 mg/kg/injection, schedule: Q04DX002 (ip), vehicle: Klucel (hydroxypropylcellulose) (HPC)
[13] = dose: 200.0 mg/kg/injection, schedule: Q04DX002 (ip), vehicle: Klucel (hydroxypropylcellulose) (HPC)
[14] = dose: 400.0 mg/kg/injection, schedule: Q04DX002 (ip), vehicle: Klucel (hydroxypropylcellulose) (HPC)
[15] = dose: 50.0 mg/kg/injection, schedule: Q01DX009 (ip), vehicle: Klucel (hydroxypropylcellulose) (HPC)
[16] = dose: 100.0 mg/kg/injection, schedule: Q01DX009 (ip), vehicle: Klucel (hydroxypropylcellulose) (HPC)
[17] = dose: 200.0 mg/kg/injection, schedule: Q01DX009 (ip), vehicle: Klucel (hydroxypropylcellulose) (HPC)
[18] = dose: 50.0 mg/kg/injection, schedule: Q01DX009 (ip), vehicle: saline with Tween-80
[19] = dose: 100.0 mg/kg/injection, schedule: Q01DX009 (ip), vehicle: saline with Tween-80
[20] = dose: 100.0 mg/kg/injection, schedule: Q04DX003 (ip), vehicle: saline with Tween-80
[21] = dose: 200.0 mg/kg/injection, schedule: Q04DX003 (ip), vehicle: saline with Tween-80
[22] = dose: 400.0 mg/kg/injection, schedule: Q04DX003 (ip), vehicle: saline with Tween-80

Measured: T/C

O=C(N/N=C/c1ccc2c(c1)CCC2)Nc1ccc([N+](=O)[O-])cc1[N+](=O)[O-]
inactive: [1] 91 % of control | [2] 98 % of control | [3] 101 % of control

CC/C(=N/N=C(N)N)C(=O)O
inactive: dose: 15.0 mg/kg/injection, schedule: Q01DX Z (ip), vehicle: carboxymethylcellulose (CMC) 102 % of control | dose: 30.0 mg/kg/injection, schedule: Q01DX Z (ip), vehicle: carboxymethylcellulose (CMC) 95 % of control | dose: 60.0 mg/kg/injection, schedule: Q01DX Z (ip), vehicle: carboxymethylcellulose (CMC) 103 % of control and 106 % of control | dose: 120.0 mg/kg/injection, schedule: Q01DX Z (ip), vehicle: carboxymethylcellulose (CMC) 96 % of control and 98 % of control | dose: 240.0 mg/kg/injection, schedule: Q01DX Z (ip), vehicle: carboxymethylcellulose (CMC) 100 % of control | dose: 480.0 mg/kg/injection, schedule: Q01DX Z (ip), vehicle: carboxymethylcellulose (CMC) 102 % of control

CC(O)C(NC(=O)OCc1ccccc1)C(=O)NC(CO)C(=O)NN (stereo not drawn) (Cbz-Thr-Ser-NHNH2; configuration not given here)
inactive: dose: 5.0 mg/kg/injection, schedule: Q01DX001 (ip), vehicle: saline 103 % of control | dose: 10.0 mg/kg/injection, schedule: Q01DX001 (ip), vehicle: saline 103 % of control | dose: 20.0 mg/kg/injection, schedule: Q01DX001 (ip), vehicle: saline 103 % of control | dose: 40.0 mg/kg/injection, schedule: Q01DX001 (ip), vehicle: saline 105 % of control | dose: 80.0 mg/kg/injection, schedule: Q01DX001 (ip), vehicle: saline 97 % of control | dose: 100.0 mg/kg/injection, schedule: Q01DX001 (ip), vehicle: saline 103 % of control and 98 % of control | dose: 200.0 mg/kg/injection, schedule: Q01DX001 (ip), vehicle: saline 95 % of control

Oc1ccc2ccccc2c1C=Nc1cccc(Cl)c1
inactive: dose: 50.0 mg/kg/injection, schedule: Q04DX003 (ip), vehicle: Klucel (hydroxypropylcellulose) (HPC) 103 % of control | [4] 113 % of control | dose: 100.0 mg/kg/injection, schedule: Q04DX003 (ip), vehicle: Klucel (hydroxypropylcellulose) (HPC) 101 % of control | [5] 107 % of control | dose: 200.0 mg/kg/injection, schedule: Q04DX003 (ip), vehicle: Klucel (hydroxypropylcellulose) (HPC) 98 % of control | [6] 101 % of control

CN1CSC(=S)N(Cc2ccccc2)C1
inactive: [7] 94 % of control | [8] 97 % of control | dose: 400.0 mg/kg/injection, schedule: Q04DX002 (ip), vehicle: saline with Tween-80 105 % of control

COc1ccccc1CN1CCCN(Cc2ccccc2OC)C1c1cc(OC)c(O)c(OC)c1
inactive: [9] 98 % of control | [10] 91 % of control | [11] 96 % of control

O=C(/C=N/O)Nc1ccc([N+](=O)[O-])cc1
inactive: [12] 92 % of control | [13] 100 % of control | [14] 92 % of control

Nc1nc(SCc2ccccc2)c2ncn(C3OC(CO)CC3O)c2n1 (stereo not given)
active: dose: 50.0 mg/kg/injection, schedule: Q01DX009 (ip), vehicle: other 158 % of control | dose: 100.0 mg/kg/injection, schedule: Q01DX009 (ip), vehicle: other 158 % of control | [11] 150 % of control | dose: 600.0 mg/kg/injection, schedule: Q01DX001 (ip), vehicle: carboxymethylcellulose (CMC) 155 % of control
inactive: dose: 25.0 mg/kg/injection, schedule: Q01DX009 (ip), vehicle: other 113 % of control | dose: 50.0 mg/kg/injection, schedule: Q01DX001 (ip), vehicle: carboxymethylcellulose (CMC) 110 % of control | [9] 116 % of control | dose: 400.0 mg/kg/injection, schedule: Q01DX009 (ip), vehicle: other 95 % of control

O=C1c2cc([N+](=O)[O-])ccc2-c2ccc([N+](=O)[O-])cc21
inactive: [15] 95 % of control and 90 % of control | [9] 89 % of control | [16] 109 % of control | [12] 101 % of control | [10] 87 % of control | [17] 98 % of control and 102 % of control | [13] 113 % of control | [11] 97 % of control | [14] 89 % of control

COC(=O)/C=C(\C)Nc1ccc(C(C)=O)cc1
inactive: dose: 100.0 mg/kg/injection, schedule: Q04DX003 (ip), vehicle: acetone 96 % of control | dose: 200.0 mg/kg/injection, schedule: Q04DX003 (ip), vehicle: acetone 94 % of control | dose: 400.0 mg/kg/injection, schedule: Q04DX003 (ip), vehicle: acetone 94 % of control

O=C1c2ccccc2-c2cc([N+](=O)[O-])c(NC(=O)C(Cl)Cl)cc21
inactive: [9] 96 % of control | [10] 107 % of control | [11] 102 % of control

OC1CCCCC1c1ccccc1 (stereo not given)
inactive: [18] 87 % of control | [19] 87 % of control | dose: 200.0 mg/kg/injection, schedule: Q01DX009 (ip), vehicle: saline with Tween-80 97 % of control

CCCCC(CC)(CCN)CCCC
inactive: dose: 5.0 mg/kg/injection, schedule: Q01DX001 (ip), vehicle: carboxymethylcellulose (CMC) 102 % of control | dose: 10.0 mg/kg/injection, schedule: Q01DX001 (ip), vehicle: carboxymethylcellulose (CMC) 104 % of control | dose: 20.0 mg/kg/injection, schedule: Q01DX001 (ip), vehicle: carboxymethylcellulose (CMC) 91 % of control

Cc1cccc(CNC(=O)NCCCl)c1C
inactive: [4] 100 % of control | [5] 97 % of control | [6] 95 % of control

CC(=O)OCCN(C)C
inactive: dose: 75.0 mg/kg/injection, schedule: Q01DX009 (ip), vehicle: saline 104 % of control | dose: 100.0 mg/kg/injection, schedule: Q04DX002 (ip), vehicle: saline 100 % of control | dose: 150.0 mg/kg/injection, schedule: Q01DX009 (ip), vehicle: saline 101 % of control | dose: 200.0 mg/kg/injection, schedule: Q04DX002 (ip), vehicle: saline 110 % of control | dose: 300.0 mg/kg/injection, schedule: Q01DX009 (ip), vehicle: saline 101 % of control | dose: 400.0 mg/kg/injection, schedule: Q04DX002 (ip), vehicle: saline 113 % of control

Cc1nc([N+](=O)[O-])cn1CCN1CCOCC1
inactive: [15] 102 % of control | [16] 94 % of control | [12] 92 % of control | [17] 102 % of control | [13] 105 % of control | [14] 105 % of control

COc1ccc2nc(C)c(COC(C)=O)cc2c1
inactive: [1] 100 % of control | [2] 98 % of control | [3] 105 % of control

NC(=O)NC(=O)C1C2C=CC(C2)C1C(=O)NC(N)=O (stereo not given)
inactive: [20] 100 % of control | [21] 100 % of control | [22] 91 % of control

O=C1CCCCC1(O)C[N+](=O)[O-] (stereo not given)
inactive: dose: 75.0 mg/kg/injection, schedule: Q01DX001 (ip), vehicle: carboxymethylcellulose (CMC) 96 % of control

CCCCCCCCOC(=O)Nc1ccccc1
inactive: dose: 25.0 mg/kg/injection, schedule: Q01DX009 (ip), vehicle: Klucel (hydroxypropylcellulose) (HPC) 100 % of control | [15] 94 % of control | [16] 100 % of control

ClC(Cl)(Cl)C1OCOC(C(Cl)(Cl)Cl)O1 (stereo not given)
inactive: [20] 98 % of control | [21] 96 % of control | [22] 101 % of control

COC1CCC(/C(C#N)=C/c2ccco2)CC1 (stereo not given)
inactive: [7] 97 % of control and 89 % of control | [8] 94 % of control and 99 % of control | dose: 800.0 mg/kg/injection, schedule: Q04DX002 (ip), vehicle: saline with Tween-80 103 % of control

CSC1=NCCCC1
inactive: dose: 75.0 mg/kg/injection, schedule: Q01DX001 (ip), vehicle: saline 105 % of control | dose: 150.0 mg/kg/injection, schedule: Q01DX001 (ip), vehicle: saline 104 % of control

CN(C)c1ccc(/C=N/NC(=O)c2ccc(Cl)cc2)cc1
inactive: [18] 100 % of control | [19] 89 % of control

Reference: PubChem BioAssay AID248 (DTP/NCI, 2004)
